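Following 48 hours of exposure in 96-well plates, responses at five concentrations were used to interpolate endpoints linearly. GI50 marks 50% less growth. TGI marks complete inhibition of growth.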
Columns and labels:
Assay in all cases: growth of human tumour cells (NCI), 48 h
[1] = system: COLO 205 colon
[2] = system: SK-MEL-28 melanoma
[3] = system: PC-3 prostate
[4] = system: MOLT-4 leukemia
[5] = system: SN12C renal
[6] = system: SK-MEL-2 melanoma
[7] = system: ACHN renal
[8] = system: HCC-2998 colon
[9] = system: OVCAR-4 ovarian
[10] = system: UACC-257 melanoma
[11] = system: MDA-MB-231 breast
[12] = system: IGROV1 ovarian
[13] = system: EKVX NSCLC
[14] = system: RPMI-8226 leukemia
[15] = system: SF-268 CNS
[16] = system: OVCAR-5 ovarian
[17] = system: MALME-3M melanoma
[18] = system: RXF 393 renal
[19] = system: HOP-62 NSCLC
[20] = system: CAKI-1 renal
[21] = system: UACC-62 melanoma
[22] = system: BT-549 breast
[23] = system: NCI-H226 lung
[24] = system: SR leukemia
[25] = system: TK-10 renal
[26] = system: SNB-75 CNS
[27] = system: MCF7 breast
[28] = system: 786-0 renal
[29] = system: KM12 colon
[30] = system: NCI-H522 lung
[31] = system: SF-539 CNS
[32] = system: DU-145 prostate
[33] = system: SNB-19 CNS
[34] = system: NCI/ADR-RES ovarian
[35] = system: M14 melanoma
[36] = system: LOX IMVI melanoma
[37] = system: A549 NSCLC
[38] = system: HS 578T breast
[39] = system: K-562 leukemia
[40] = system: NCI-H460 lung
[41] = system: UO-31 renal
[42] = system: CCRF-CEM leukemia
[43] = system: SW-620 colon
[44] = system: NCI-H23 lung
[45] = system: OVCAR-3 ovarian
[46] = system: HCT-116 colon
[47] = system: U251 CNS
[48] = system: HOP-92 NSCLC
[49] = system: HL-60(TB) leukemia
[50] = system: HT29 colon
[51] = system: OVCAR-8 ovarian
[52] = system: SK-MEL-5 melanoma
[53] = system: MDA-MB-435
[54] = system: HCT-15 colon
[55] = system: SF-295 CNS
[56] = system: SK-OV-3 ovarian
[57] = system: A498 renal
[58] = system: T-47D breast

For `O=C1C=CC(=C(c2ccccc2)c2ccc(O)cc2)C=C1`, the TGI [1] was 49.7 µM, the TGI [2] was 31.9 µM and the TGI [3] was 47.5 µM. It also gave a TGI [4] of over 100 µM, a TGI [5] of 29.7 µM and a TGI [6] of 32 µM. The TGI [7] was 39.2 µM, the TGI [8] was 63.9 µM and the TGI [9] was 30.2 µM. The TGI [10] was 31.7 µM, the TGI [11] was 32.4 µM and the TGI [12] was 22.5 µM. It also gave a TGI [13] of 35.9 µM, a TGI [14] of over 100 µM and a TGI [15] of 43.3 µM. The TGI [16] was 49.7 µM, the TGI [17] was 28.6 µM and the TGI [18] was 30.5 µM. The TGI [19] was over 100 µM, the TGI [20] was 32.1 µM and the TGI [21] was 28.9 µM. The TGI [22] was 18.7 µM, the TGI [23] was 38 µM and the TGI [24] was 40.8 µM. For the same molecule, the TGI [25] was 37.4 µM, the TGI [26] was 38.2 µM and the TGI [27] was 37.1 µM. For the same molecule, the TGI [28] was over 100 µM, the TGI [29] was 41.5 µM and the TGI [30] was 28.2 µM. The TGI [31] was 30.8 µM, the TGI [32] was 53.6 µM and the TGI [33] was 31.7 µM. It also gave a TGI [34] of over 100 µM, a TGI [35] of 91.6 µM and a TGI [36] of 17.9 µM. The TGI [37] was 36.8 µM, the TGI [38] was 47.7 µM and the TGI [39] was 68.1 µM. The TGI [40] was 41.7 µM, the TGI [41] was 29.5 µM and the TGI [42] was over 100 µM. For the same molecule, the TGI [43] was 90.9 µM, the TGI [44] was 42.9 µM and the TGI [45] was 32.5 µM. The TGI [46] was over 100 µM, the TGI [47] was 29.2 µM and the TGI [48] was 36.1 µM. It also gave a TGI [49] of 47.2 µM, a TGI [50] of 43.4 µM and a TGI [51] of 44.1 µM. It also gave a TGI [52] of 26.4 µM, a TGI [53] of 32.5 µM and a TGI [54] of 35.3 µM. It also gave a TGI [55] of 39.6 µM.

`COc1ccc(C(=NN=C(N)N)c2ccc(OC)cc2)cc1` showed a GI50 [1] of 1.79 µM, a TGI [1] of 3.97 µM and a GI50 [2] of 5.7 µM. The TGI [2] was 19.1 µM, the GI50 [3] was 3.04 µM and the TGI [3] was 14.4 µM. For the same molecule, the GI50 [4] was 3.89 µM, the TGI [4] was 16.7 µM and the GI50 [5] was 3.15 µM. It also gave a TGI [5] of 15.5 µM, a GI50 [6] of 2.51 µM and a TGI [6] of 12.6 µM. The GI50 [7] was 3.49 µM, the TGI [7] was 13.3 µM and the GI50 [8] was 3.53 µM. It also gave a TGI [8] of 14.4 µM, a GI50 [9] of 3.46 µM and a TGI [9] of 16.4 µM. It also gave a GI50 [10] of 7.24 µM, a TGI [10] of 25.1 µM and a GI50 [11] of 3.88 µM. For the same molecule, the TGI [11] was 17.1 µM, the GI50 [12] was 2.97 µM and the TGI [12] was 13.7 µM. The GI50 [13] was 4.68 µM, the TGI [13] was 24.7 µM and the GI50 [56] was 2.78 µM. It also gave a TGI [56] of 10.6 µM, a GI50 [14] of 5.46 µM and a TGI [14] of 21.8 µM. The GI50 [15] was 2.34 µM, the TGI [15] was 12 µM and the GI50 [16] was 5.1 µM. It also gave a TGI [16] of 21.6 µM, a GI50 [17] of 2.85 µM and a TGI [17] of 11.6 µM. It also gave a GI50 [18] of 1.81 µM, a TGI [18] of 4.82 µM and a GI50 [19] of 3.9 µM. For the same molecule, the TGI [19] was 15.5 µM, the GI50 [20] was 5.75 µM and the TGI [20] was 21 µM. The GI50 [21] was 3.54 µM, the TGI [21] was 14.1 µM and the GI50 [22] was 3.94 µM. The TGI [22] was 15.6 µM, the GI50 [23] was 4.37 µM and the TGI [23] was 18.3 µM. For the same molecule, the GI50 [25] was 4.26 µM, the TGI [25] was 14.5 µM and the GI50 [26] was 1.84 µM. For the same molecule, the TGI [26] was 11.3 µM, the GI50 [27] was 2.89 µM and the TGI [27] was 12.4 µM. It also gave a GI50 [28] of 3.29 µM, a TGI [28] of 13.1 µM and a GI50 [29] of 2.31 µM. For the same molecule, the TGI [29] was 8.41 µM, the GI50 [30] was 2.9 µM and the TGI [30] was 13.4 µM. It also gave a GI50 [32] of 2.6 µM, a TGI [32] of 10.8 µM and a GI50 [33] of 3.72 µM. It also gave a TGI [33] of 16.4 µM, a GI50 [34] of 21.1 µM and a TGI [34] of 75.6 µM. For the same molecule, the GI50 [35] was 2.35 µM, the TGI [35] was 6.36 µM and the GI50 [36] was 2.91 µM. The TGI [36] was 11.4 µM, the GI50 [37] was 4.91 µM and the TGI [37] was 18.5 µM. The GI50 [38] was 1.75 µM, the TGI [38] was 6.93 µM and the GI50 [39] was 3.7 µM. The TGI [39] was 15.4 µM, the GI50 [40] was 3.04 µM and the TGI [40] was 11 µM. The GI50 [41] was 3.46 µM, the TGI [41] was 15.6 µM and the GI50 [42] was 5.18 µM. It also gave a TGI [42] of 42.6 µM, a GI50 [43] of 3.11 µM and a TGI [43] of 12.4 µM. For the same molecule, the GI50 [44] was 3.87 µM, the TGI [44] was 17.8 µM and the GI50 [45] was 1.74 µM. For the same molecule, the TGI [45] was 4.76 µM, the GI50 [46] was 3.15 µM and the TGI [46] was 12.4 µM. It also gave a GI50 [57] of 2.78 µM, a TGI [57] of 13.3 µM and a GI50 [47] of 3.72 µM. For the same molecule, the TGI [47] was 14.1 µM, the GI50 [48] was 1.9 µM and the TGI [48] was 7.45 µM. The GI50 [49] was 2.53 µM, the TGI [49] was 8.48 µM and the GI50 [50] was 2.95 µM. The TGI [50] was 12.6 µM, the GI50 [58] was 3.21 µM and the TGI [58] was 15.1 µM. It also gave a GI50 [51] of 5.29 µM, a TGI [51] of 21.1 µM and a GI50 [52] of 2.25 µM. It also gave a TGI [52] of 5.76 µM, a GI50 [53] of 1.78 µM and a TGI [53] of 4.33 µM. The GI50 [54] was 4.73 µM, the TGI [54] was 19.9 µM and the GI50 [55] was 2.72 µM. The TGI [55] was 11.2 µM.
